PubChem BioAssay AID248 (DTP/NCI, 2004)
Values joined by “and” are separate entries in the source; they are usually repeats but may differ in a detail not shown here. Equal values may be shown once. Toxic doses and inconclusive results are not listed. Rule as the data show it: active = T/C of 150% or more; inactive = T/C below 125%. Peptide text beside a SMILES is read from it. * marks the point of attachment. Cbz = O=C(OCc1ccccc1)*; OtBu = CC(C)(C)O*

System: L1210 leukemia ip in BDF1 mice, survival T/C
Assay: NCI In Vivo Anticancer Drug Screen. Data for tumor model L1210 Leukemia (intraperitoneal) in B6D2F1 (BDF1) mice
Details: endpoint: mean survival time, higher = longer survival
Outline: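 Antitumor effect is assessed in tumor-bearing animals. Survival in the compound arm is compared with a vehicle-dosed control arm and expressed as their quotient.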

[1] = dose: 100.0 mg/kg/injection, schedule: Q04DX003 (ip), vehicle: Klucel (hydroxypropylcellulose) (HPC)
[2] = dose: 200.0 mg/kg/injection, schedule: Q04DX003 (ip), vehicle: Klucel (hydroxypropylcellulose) (HPC)
[3] = dose: 400.0 mg/kg/injection, schedule: Q04DX003 (ip), vehicle: Klucel (hydroxypropylcellulose) (HPC)
[4] = dose: 100.0 mg/kg/injection, schedule: Q01DX009 (ip), vehicle: saline
[5] = dose: 100.0 mg/kg/injection, schedule: Q01DX001 (ip), vehicle: saline
[6] = dose: 200.0 mg/kg/injection, schedule: Q01DX001 (ip), vehicle: saline
[7] = dose: 100.0 mg/kg/injection, schedule: Q04DX002 (ip), vehicle: saline with Tween-80
[8] = dose: 200.0 mg/kg/injection, schedule: Q04DX002 (ip), vehicle: saline with Tween-80
[9] = dose: 100.0 mg/kg/injection, schedule: Q04DX002 (ip), vehicle: Klucel (hydroxypropylcellulose) (HPC)
[10] = dose: 200.0 mg/kg/injection, schedule: Q04DX002 (ip), vehicle: Klucel (hydroxypropylcellulose) (HPC)
[11] = dose: 50.0 mg/kg/injection, schedule: Q01DX009 (ip), vehicle: saline with Tween-80
[12] = dose: 12.5 mg/kg/injection, schedule: Q01DX009 (ip), vehicle: water
[13] = dose: 25.0 mg/kg/injection, schedule: Q01DX009 (ip), vehicle: water
[14] = dose: 100.0 mg/kg/injection, schedule: Q04DX003 (ip), vehicle: saline with Tween-80
[15] = dose: 200.0 mg/kg/injection, schedule: Q04DX003 (ip), vehicle: saline with Tween-80
[16] = dose: 400.0 mg/kg/injection, schedule: Q04DX003 (ip), vehicle: saline with Tween-80
[17] = dose: 100.0 mg/kg/injection, schedule: Q01DX001 (ip), vehicle: saline with Tween-80
[18] = dose: 25.0 mg/kg/injection, schedule: Q01DX009 (ip), vehicle: saline
[19] = dose: 50.0 mg/kg/injection, schedule: Q01DX009 (ip), vehicle: saline

Measured: T/C

COC(=O)C(CCC(=O)OC(C)(C)C)NC(=O)C(CCC(=O)OC(C)(C)C)NC(=O)OCc1ccccc1 (stereo unspecified) (Cbz-Glu(OtBu)-Glu(OtBu)-OMe; configuration not given here)
inactive: [1] 100 % of control | [2] 99 % of control | [3] 103 % of control

CCCC(=O)C(CC)C(O)(C(F)(F)F)C(F)(F)F (stereo unspecified)
inactive: [4] 92 % of control | dose: 200.0 mg/kg/injection, schedule: Q01DX009 (ip), vehicle: saline 94 % of control

C/C(=C1/SC(=S)NC1=O)c1ccccc1O
inactive: [5] 104 % of control | [6] 104 % of control

CN1CCN(P(c2ccccc2)N2CCN(C)CC2)CC1
inactive: [7] 107 % of control | [8] 103 % of control | dose: 400.0 mg/kg/injection, schedule: Q04DX002 (ip), vehicle: saline with Tween-80 95 % of control

COC1CCC2CC3C4Cc5cn[nH]c5C5OC1C2C54CCN3C (stereo unspecified)
inactive: dose: 100.0 mg/kg/injection, schedule: Q04DX003 (ip), vehicle: saline 95 % of control | dose: 200.0 mg/kg/injection, schedule: Q04DX003 (ip), vehicle: saline 86 % of control

CC(=O)CC(=O)Nc1cccc(C)n1
inactive: [5] 100 % of control | [9] 94 % of control | [6] 110 % of control | [10] 97 % of control

CC(=O)C1CCC2C3CCC4=CC(=O)CC4(C)C3CCC12C (stereo unspecified)
inactive: [11] 113 % of control | dose: 100.0 mg/kg/injection, schedule: Q01DX009 (ip), vehicle: saline with Tween-80 105 % of control | dose: 200.0 mg/kg/injection, schedule: Q01DX009 (ip), vehicle: saline with Tween-80 90 % of control

CCN(CC)CCOc1ccc(C(=O)/C(=C/c2ccc(OC)cc2)c2ccccc2)cc1
inactive: dose: 100.0 mg/kg/injection, schedule: Q04DX003 (sc), vehicle: olive oil, sesame oil, peanut oil 100 % of control | dose: 200.0 mg/kg/injection, schedule: Q04DX003 (sc), vehicle: olive oil, sesame oil, peanut oil 96 % of control | dose: 400.0 mg/kg/injection, schedule: Q04DX003 (sc), vehicle: olive oil, sesame oil, peanut oil 108 % of control

COc1ccc(C(CC(C)=O)c2c(O)c3ccccc3oc2=O)cc1OC (stereo unspecified)
inactive: dose: 1.56 mg/kg/injection, schedule: Q01DX009 (ip), vehicle: water 102 % of control | dose: 3.12 mg/kg/injection, schedule: Q01DX009 (ip), vehicle: water 97 % of control | dose: 6.25 mg/kg/injection, schedule: Q01DX009 (ip), vehicle: water 98 % of control | [12] 93 % of control | [13] 93 % of control and 86 % of control

c1ccc(C2=NC3CCCCC3N=C2c2ccccc2)cc1 (stereo unspecified)
inactive: [14] 101 % of control | [15] 95 % of control | [16] 96 % of control

Cc1cc(I)c(C)s1
inactive: [14] 96 % of control | [15] 96 % of control | [16] 98 % of control

CC(C)CC(=O)NC(C)C(=O)NC(Cc1ccccc1)C(=O)CCl (stereo unspecified)
inactive: dose: 12.0 mg/kg/injection, schedule: Q04DX002 (ip), vehicle: Klucel (hydroxypropylcellulose) (HPC) 109 % of control | dose: 25.0 mg/kg/injection, schedule: Q04DX002 (ip), vehicle: Klucel (hydroxypropylcellulose) (HPC) 98 % of control | dose: 50.0 mg/kg/injection, schedule: Q04DX002 (ip), vehicle: Klucel (hydroxypropylcellulose) (HPC) 106 % of control

Cc1ccc(S(=O)(=O)C2CCCCC2)cc1
inactive: dose: 50.0 mg/kg/injection, schedule: Q01DX001 (ip), vehicle: carboxymethylcellulose (CMC) 96 % of control | dose: 100.0 mg/kg/injection, schedule: Q01DX001 (ip), vehicle: carboxymethylcellulose (CMC) 107 % of control | dose: 200.0 mg/kg/injection, schedule: Q01DX001 (ip), vehicle: carboxymethylcellulose (CMC) 102 % of control | dose: 400.0 mg/kg/injection, schedule: Q01DX001 (ip), vehicle: carboxymethylcellulose (CMC) 102 % of control

N#CCN(CC#N)CCN(CC#N)CCN(CC#N)CC#N
inactive: [5] 104 % of control | [6] 104 % of control | dose: 400.0 mg/kg/injection, schedule: Q01DX001 (ip), vehicle: saline 95 % of control

CCOC(=O)/C(=C\c1ccccn1)C(=O)c1cccnc1
inactive: [1] 102 % of control | [2] 105 % of control | [3] 118 % of control

Cc1ccnc2c([N+](=O)[O-])cccc12
inactive: dose: 75.0 mg/kg/injection, schedule: Q01DX001 (ip), vehicle: other 102 % of control | [7] 103 % of control | dose: 150.0 mg/kg/injection, schedule: Q01DX001 (ip), vehicle: other 102 % of control | [8] 109 % of control | dose: 300.0 mg/kg/injection, schedule: Q01DX001 (ip), vehicle: other 103 % of control

CCCCS(=O)(=O)CS(=O)(=O)CC
inactive: [17] 98 % of control | dose: 200.0 mg/kg/injection, schedule: Q01DX001 (ip), vehicle: saline with Tween-80 91 % of control | dose: 400.0 mg/kg/injection, schedule: Q01DX001 (ip), vehicle: saline with Tween-80 105 % of control

Cc1nc(N)[nH]c(=O)c1CCCNC(=O)c1ccc(C(=O)O)cc1
inactive: dose: 25.0 mg/kg/injection, schedule: Q01DX001 (ip), vehicle: saline with Tween-80 90 % of control | dose: 50.0 mg/kg/injection, schedule: Q01DX001 (ip), vehicle: saline with Tween-80 97 % of control | [17] 93 % of control

Cc1cccc(NC(C(=O)O)c2ccccc2)c1 (stereo unspecified)
inactive: [9] 100 % of control | [10] 93 % of control | dose: 400.0 mg/kg/injection, schedule: Q04DX002 (ip), vehicle: Klucel (hydroxypropylcellulose) (HPC) 89 % of control

CCCCOP(=S)(OCCCC)[S][Hg][c]1ccco1
inactive: dose: 25.0 mg/kg/injection, schedule: Q04DX002 (ip), vehicle: alcohol 97 % of control | dose: 50.0 mg/kg/injection, schedule: Q04DX002 (ip), vehicle: alcohol 97 % of control

CC1(C)N=C(N)N=C(N)N1c1ccc(OCC(=O)N2CCOCC2)c(Cl)c1
inactive: dose: 12.5 mg/kg/injection, schedule: Q01DX009 (ip), vehicle: saline 98 % of control | [18] 98 % of control | [19] 95 % of control | [4] 101 % of control

Cn1nc(N)c2ncc(C(Cl)(Cl)Cl)nc21
inactive: dose: 25.0 mg/kg/injection, schedule: Q01DX009 (ip), vehicle: saline with Tween-80 108 % of control | [11] 111 % of control

c1ccc(Nc2ncc3cnccn23)cc1
inactive: [18] 96 % of control | [19] 90 % of control | [4] 97 % of control

N#CC(=N)C(C#N)=Nc1c(O)[nH]c2ccccc12
inactive: dose: 25.0 mg/kg/injection, schedule: Q01DX001 (ip), vehicle: DMSO 93 % of control | dose: 25.0 mg/kg/injection, schedule: Q01DX009 (ip), vehicle: DMSO 92 % of control | dose: 50.0 mg/kg/injection, schedule: Q01DX001 (ip), vehicle: DMSO 97 % of control | dose: 50.0 mg/kg/injection, schedule: Q01DX009 (ip), vehicle: DMSO 91 % of control | dose: 100.0 mg/kg/injection, schedule: Q01DX001 (ip), vehicle: DMSO 97 % of control and 102 % of control

CN(C)Cc1cccc(N)c1
inactive: [12] 102 % of control | [13] 100 % of control | dose: 25.0 mg/kg/injection, schedule: Q04DX003 (ip), vehicle: water 104 % of control | dose: 50.0 mg/kg/injection, schedule: Q01DX009 (ip), vehicle: water 100 % of control | dose: 50.0 mg/kg/injection, schedule: Q04DX003 (ip), vehicle: water 95 % of control | dose: 100.0 mg/kg/injection, schedule: Q04DX003 (ip), vehicle: water 96 % of control and 102 % of control

O=c1c2cc([N+](=O)[O-])cc3c2-c2c4c(cc([N+](=O)[O-])cc14)c(O)c1cc([N+](=O)[O-])cc(c3=O)c21
inactive: dose: 100.0 mg/kg/injection, schedule: Q04DX003 (ip), vehicle: acetone 123 % of control | dose: 200.0 mg/kg/injection, schedule: Q04DX003 (ip), vehicle: acetone 120 % of control | dose: 266.0 mg/kg/injection, schedule: Q04DX003 (ip), vehicle: saline 111 % of control | dose: 400.0 mg/kg/injection, schedule: Q04DX003 (ip), vehicle: saline 116 % of control
